The values that follow come from patent US20230002344A1, “NOVEL BENZOTHIOPHENE DERIVATIVES AND USE THEREOF FOR STIMULATING MITOCHONDRIAL TURNOVER” (NIBN, The National Institute For Biotechnology In The Negev …, priority 2019, published 2023).

The test system of data set [1] is INS1 cells.
Description: Cellular oxygen consumption. An hour before oxygen consumption measurements, cell media was replaced by assay media (2 mM glucose, 0.8 mM Mg 2+, 1.8 mM Ca 2+, 143 mM NaCl, 5.4 mM KCl, 0.91 mM, NaH 2 PO 4 , and 15 mg/mL Phenol red) for 120 min at 37° C. (no CO2) before loading into the Seahorse Bioscience XF24 extracellular analyzer. The ports of the cartridge containing the oxygen probes were loaded with the compounds to be injected during the assay (50 μL/port) and the cartridge was calibrated.
Basal respiration was recorded for 30 min, at approximately 5 min intervals until system stabilization. Glucose was injected at a final concentration of 12 mM and glucose stimulated respiration was recorded for approximately 15 min. FCCP (Carbonyl cyanide-4-phenylhydrazone) was used at final concentration of 4 μM and injected with sodium pyruvate (Sigma) at a final concentration of 5 mM. Oligomycin and antimycin were used at final concentrations of 2 and 4 μM, respectively. All respiratory modulators were used at ideal concentrations titrated during preliminary experiments (not shown) and oxygen consumption rates were recorded for up to 15 min due the toxicity of these compounds. […] All the OCR values were subtracted from the lowest antimycin OCR.
The subject of data set [2] is INS1 cells. The experiment in a line: Western blot for mitochondrial proteins. The format is cell-based. Conditions: 24 h. The procedure:
INS1 cells expressing Mitotimer under EF-1 alpha promoter were treated for 18 hours with rapamycin (100 nM). […] FIGS. 2B and 2C show a Western blot for mitochondrial proteins upon treatment with rapamycin. Note that rapamycin increased mitochondrial mass.
(§1) Cell treatments and mitochondrial extraction. INS1 cells were treated with SBP08007 or MWP00839 25 uM for 24 h. Mitochondrial and cytosolic fractions from INS1 cells were performed by using the Mitochondria Isolation Kit for Cultured Cells (Pierce). INS1 cells were lysed in a hypotonic buffer (10 mM NaCl, 1.5 mM MgCl2, and 10 mM Tris.HCl, pH 7.5), and mitochondria were extracted in a Dounce homogenizer in mitochondrial buffer (1 mM EDTA, 210 mM mannitol, 70 mM sucrose, and 5 mM Tris.HCl, 7.5), followed by centrifugation at 1,300×g for 10 min at 4° C. The supernatant was further centrifuged at 17,000×g for 15 min at 4° C. to pellet the mitochondria. The crude mitochondrial fraction was resuspended for washing and centrifuged at 17,000×g for 15 min at 4° C. The pellets were collected as the mitochondrial fraction.
Western blot. Cell lysates were diluted in Laemmli sample buffer (100 mM Tris-HCl, 2% SDS, 10% glycerol, 0.1% bromophenol blue) containing 5% beta-mercaptoethanol. After heating at 95° C. for 5 min, proteins were separated by SDS-PAGE previously added of Stain Free reagent (BioRad), and transferred onto PVDF membranes. Membranes were blocked with 5% non-fat milk and detection of individual proteins was carried out by blotting with specific primary antibodies against ubiquitin (Calbiochem 1:1,000). Chemiluminescence detection using a secondary peroxidase-linked anti-rabbit (Calbiochem; 1:10,000) and a detection system from Pierce KLP (Rockford, Ill., USA) was performed. Stain free total protein labeling was imaged in Image Lab 6.0 Software (BioRad), which was used for quantification of the mitochondria and normalization to total protein staining.
In general terms: Immunoblotting shows a protein as a band on a membrane.

The subject of data set [3] is INS1 cells. Nature of the data set: Mitochondrial morphology (aspect ratio, circularity). The format is cell-based. Conditions: 25 uM, 24 h. The procedure: INS1 cells were treated with SPB08007 (25 uM) or DMSO (0.1%) for 24 h. Mitochondria were stained with Mitotracker Green and TMRE (images represented in FIG. 10). MTG fluorescence was used to calculate Aspect Ratio (AR) (FIG. 16A) and circularity (FIG. 16B) of mitochondrial structures.

The subject of data set [4] is Mitochondrial complex I. Nature of the data set: Complex I activity assay. The format is biochemical. Conditions: mitochondria from INS1 cells treated with 25 uM. The procedure:
Complex I Activity assay. Mitochondrial complex I enzyme activity was measured using Abcam's complex I enzyme activity microplate assay Kit (ab109721) by following the oxidation of reduced nicotinamide adenine dinucleotide (NADH) to oxidized NAD+ and the simultaneous reduction of a dye which leads to increased absorbance at OD=450 nm.

Data set [5] concerns INS1 cells. Nature of the data set: Ubiquitinated mitochondrial proteins (anti-ubiquitin blot). The format is cell-based. Conditions: 25 uM, 24 h. The procedure: INS1 cells were treated with SPB08007 (25 uM) or DMSO (0.1%) for 24 h. FIG. 17A: total mitochondrial protein isolated from 4×10^7 cells were loaded into SDS-PAGE gel previously added of Stain Free reagent, which was used to detect total protein bands in the BioRad Bio Lab gel reader. Protein was transferred into PVDF membrane, blotted to anti-ubiquitin. FIG. 17B: Quantification of total ubiquitin relative to total mitochondrial proteins. The quantification is expressed relative to DMSO, control. *p=0.001.
as §1, with “The crude mitochondrial fraction was resuspended for washing and centrifuged at 17,000×g for 15 min at 4° C. The pellets were collected as the mitochondrial fraction.” left out
Western blot. […] Stain free total protein labeling was imaged in Image Lab 6.0 Software (BioRad), which was used for quantification of the mitochondria and normalization to total protein staining.

The subject of data set [6] is INS1 cells. Nature of the data set: Anion radical superoxide (Mitosox). In kind it is cell-based. Conditions: 25 uM. The procedure: INS1 cells were treated for 24 h with SPB08007 (25 uM) or DMSO (0.1%). Mitochondrial membrane potential was analyzed cell by cell through TMRE staining corrected by Mitotracker Green (MTG). Cells were imaged using a 100× Plan Neofluar objective and the Airyscan module of a Zeiss LSM880 confocal microscope. […] Each experiment was repeated 2 times, 59-85 cells of each group were analyzed in each experiment for TMRE/MTG, and 48 fields were analyzed in each experiment for Mitosox analysis. *p<0.05 vs. DMSO; ***p<0.05 vs. DMSO and SPB08007.
Mitotracker Green Fluorescence, Anion Radical Superoxide and Mitochondrial Membrane Potential. INS1 cells were seeded into wells of a 96-wells glass bottom cell culture plate (CELLSTAR) at a density of 2*10^4 cells/well. To assess mitochondrial clearance, a pulse-chase experiment was performed. Briefly, cells were stained with MTG (Molecular Probes) 500 nM for 30 min, washed, and treated with (25 uM) or DMSO 0.1%. After 18 h, cells were imaged using a 40× lens of a Perkin Elmer Operetta high-content imaging system microscope. Results are expressed as the percentage of MTG fluorescence relative to MTG fluorescence of the “time 0” control. […] Integrated fluorescence of each field was analyzed in Image J after background subtraction and threshold (IsoData) application. Twenty-four fields of each condition were analyzed in each experiment.

Data set [7] deals with INS1 cells. The experiment in a line: Lipotoxicity (palmitate) protection and recovery. The format is cell-based. The procedure: In FIGS. 4A and 4B: INS1 cells were treated with either DMSO (control), SPB08007 (25 μM), or MWP00839 (25 μM) for 18 hours and were subjected to an Oxygen consumption rate (OCR) test. Viability test (using XTT staining) was determined after 24 hours exposure. […] In FIG. 4C: INS1 cells were treated with 400 μM palmitate (1:5 BSA palmitate) for 24 hours and were then let to recover in presence or absence of SPB08007 (“SBP”) for 18 hours. n=4 (paired t-test).
To address the potential beneficiary effect of mitochondrial clearance by SPB08007 (compound of structural Formula 6), we employed lipotoxicity, a model that we have previously reported to impair autophagy and mitochondrial clearance by alkalization of the lysosomes (Las, G., et al., Fatty acids suppress autophagic turnover in beta-cells. J Biol Chem, 2011.286 (49): p. 42534-44).

On to `CC(=O)N/C(=C\c1sc2ccccc2c1C)C(=O)O` [SPB08007], for which, in data set [1] (25 μM, 18 hours exposure), the OCR under oligomycin result is reported as “decreased as well”, the “basal oxygen consumption rate (OCR)” value is given as “decreased” and the “maximal OCR (under FCCP induction)” value is on record as “decreased”. Further, in data set [1] (25 uM, 48 h), the ATP-linked oxygen consumption result is given as “higher”, the “glucose-stimulated mtOCR” value is recorded as “increased”, the “mitochondrial coupling (oligomycin-sensitive respiration)” value is reported as “conserving” and the “spare respiratory capacity relative to basal respiration” value was “unchanged”. In addition, the “basal mitochondrial oxygen consumption rate (mtOCR)” value in data set [1] (25 uM, 48 h, 2 mM glucose) is given as “increased”. Besides, the “maximum mtOCR” value in data set [1] (25 uM, 48 h, after FCCP) is “increased”. Further, the CI-NDFUB8 levels entry in data set [2] (25 uM) was “unaffected”. In addition, in data set [2] (25 uM, relative to DMSO), the “SDHB (Complex II) protein level increase” value is recorded as 2 fold and the “UQCRC2 (Complex III) protein level increase” value amounted to 1.5 fold. Besides, the overall mitochondrial protein result in data set [2] was “reduces”. Also, in data set [3], the mitochondrial morphology result is recorded as “does not alter”. The “mitochondrial Complex I activity” value in data set [4] is given as “two-and-a-half-fold increase”. The “ubiquitination of mitochondrial proteins” value in data set [5] is “less ubiquitinated”. In data set [6], the “anion radical superoxide formation (Mitosox)” value was “unaffected”. Also, the recovery after palmitate entry in data set [7] (400 μM palmitate 24 hours, then 18 hours recovery with compound) is given as “slight but significant increase in recovery”. In addition, the “protection from palmitate, co-treatment” value in data set [7] (co-treatment with palmitate for 18 hours) was “did not show any protection”.
